{"source": "patent US8710089B2", "about": "“Triazole derivatives as ghrelin analogue ligands of growth hormone secretagogue receptors” (Zentaris GmbH, priority 2005, dated 2014)", "key": {"human GHS-R 1a": {"target": "T1, human GHS-R 1a (Homo sapiens, UniProt Q92847)", "T1 construct": "expressed in transfected cells; host or cells: LLC PK-1 porcine renal epithelial cells (ECACC No. 86121112), isolated plasma membranes", "T1 sequence (Q92847 whole entry)": "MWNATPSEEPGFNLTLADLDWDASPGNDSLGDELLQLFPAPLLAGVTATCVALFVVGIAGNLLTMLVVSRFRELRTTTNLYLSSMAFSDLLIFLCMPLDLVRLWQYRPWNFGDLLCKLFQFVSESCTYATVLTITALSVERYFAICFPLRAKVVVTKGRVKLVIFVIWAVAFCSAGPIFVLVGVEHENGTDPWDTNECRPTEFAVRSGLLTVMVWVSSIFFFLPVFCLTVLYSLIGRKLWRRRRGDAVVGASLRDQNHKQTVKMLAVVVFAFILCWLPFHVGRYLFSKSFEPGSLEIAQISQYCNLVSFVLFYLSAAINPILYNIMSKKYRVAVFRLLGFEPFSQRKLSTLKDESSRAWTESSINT", "assay": "GHS-R 1a receptor-ligand binding assay (membrane preparations from transfected LLC PK-1 cells)", "conditions": "displacement of 125I-His9-ghrelin (60 pM); membranes of LLC PK-1 cells transfected with human GHS-R 1a; mean of at least two independent experiments in triplicates", "procedure,_shortened": "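Membranes from LLC PK-1 cells expressing human GHS-R 1a incubated 60 min at 25 °C in 50 mM Tris pH 7.3, 5 mM MgCl2, 2.5 mM EDTA, bacitracin with 60 pM 125I-ghrelin and competitor; nonspecific binding with 10^-6 M ghrelin; filtration read-out.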"}, "[1]": {"test_system": "GH concentration in the plasma of male rat pups", "assay": "In vivo GH concentration in the plasma of male rat pups", "set-up": "species or system rat (Sprague-Dawley)", "conditions": "rat pup plasma, killed 15 min later", "protocol": "IV) Assaying In Vivo GH Concentration in the Plasma of Male Rat Pups\nGH plasma concentrations of male rat pubs were assayed to characterize the modulation effect (antagonistic or agonistic) of the compounds of the invention being GHS receptor analogue ligands.\nIn principle, assaying in vivo GH concentration in rat plasma was performed according to Torsello et al. (Eur. J. Pharmacol. 1998, 360: 123-129).\nMale Sprague-Dawley rat pups (Charles River, Calco, Italy) were separated on postnatal day seven from their mothers and randomly redistributed to the dams, so that each one nurtured ten to twelve pups. On postnatal day ten, the pups were again separated from their mothers.\nThe compounds to be tested were dissolved in solvent [DMSO (0.4% of total volume), distilled water (4% of total volume), brought to the final volume with physiological saline].\nOne hour after separation from their mothers, the pups were given isovolumetric amounts of the compounds to be tested (160 μg/kg body weight s.c.) at time −10 min and then administered with hexarelin (80 μg/kg body weight s.c.) or solvent at time 0 min before being killed 15 min later by decapitation. Trunk blood was collected, immediately centrifuged and plasma samples were stored at −20° C. until assayed for the determination of GH concentrations.\nPlasma GH concentrations were measured using a rat growth hormone enzyme immunoassay kit (SPIbio, France, cat. no. 589601) according to the manufacturer's instructions. Values are expressed in terms of NIDDK rat-GH-RP2 standard (potency 2 IU/mg) as ng/mL of plasma\nThe limit of detection calculated as the concentration producing 15% displacement of initial tracer was 0.5 ng/ml; intra-assay and inter-assay coefficient of variation are 4% (n=24) and 14% (n=9).\nIn the following table 3 results obtained for selected compounds of the invention are presented."}, "[2]": {"test_system": "young-adult male Sprague-Dawley rats", "assay": "Feeding behavior (food intake) of young-adult male rats", "format": "in vivo, rat (Sprague-Dawley)", "procedure,_shortened": "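Compounds (160 μg/kg) and/or hexarelin (80 μg/kg), the latter used to stimulate feeding, given s.c. around 10.00–11.00 a.m. to trained rats (200–250 g) with free access to chow and water. Remaining food weighed hourly for 6 h; intake normalized to body weight as g per 100 g.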"}, "[3]": {"test_system": "rats with adjuvant induced arthritis", "assay": "Anti-cachectic effects in an adjuvant-induced arthritis model system", "format": "in vivo, rat", "conditions": "arthritic rats, 0.1 μg/kg/day s.c.", "excerpt": "VII) Study of Anti-Cachectic Effects in an Adjuvant-Induced Arthritis Model System\nThe effectiveness of compounds of the invention in the treatment of cachexia was investigated according to Ibanez de Caceres I et al. (J Endocrinol. 2000, 165(3): 537-544) using a cachexia model system (Roubenoff R et al., Arthritis Rheum. 1997, 40(3): 534-539)."}, "[4]": {"target": "T2, Motilin-Receptor 1a (MTL-R1a) (Homo sapiens, UniProt O43193)", "T2 construct": "expressed in transfected cells; host or cells: HEK-293 cells", "T2 sequence (O43193 whole entry)": "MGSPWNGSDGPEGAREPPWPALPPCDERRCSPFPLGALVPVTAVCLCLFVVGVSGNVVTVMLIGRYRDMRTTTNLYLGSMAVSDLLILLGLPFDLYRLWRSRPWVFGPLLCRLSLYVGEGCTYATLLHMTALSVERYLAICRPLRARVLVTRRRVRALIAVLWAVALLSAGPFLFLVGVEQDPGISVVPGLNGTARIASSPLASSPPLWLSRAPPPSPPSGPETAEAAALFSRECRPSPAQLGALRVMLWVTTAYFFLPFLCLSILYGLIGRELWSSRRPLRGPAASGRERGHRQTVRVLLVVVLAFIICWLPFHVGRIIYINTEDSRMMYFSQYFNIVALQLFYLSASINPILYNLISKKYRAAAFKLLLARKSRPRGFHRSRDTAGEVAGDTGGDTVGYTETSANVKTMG", "assay": "Motilin receptor-ligand binding assay (human recombinant HEK-293 cells)", "conditions": "0.1 nM [125I] Motilin, read-out: MTL-R 1a IC50", "protocol": "VI) Motilin Receptor-Ligand Binding Assay (Using Human Recombinant HEK-293 Cells)\nMotilin Receptor binding/affinity studies were performed as described by Feighner S D et al. (Science 1999, 284: 2184-2188). The assays were run under the following conditions:\nCompounds of the invention were tested in concentrations comprising 0.01 μM, 0.1 μM, 1 μM and 10 μM.\nIC50 values were determined by a non-linear, least square regression analysis using Data Analysis Toolbox (MDL Information Systems, USA).\nIn the following table 5 results obtained for selected compounds of the invention are presented."}, "[5]": {"conditions": "compound 160 μg/kg s.c. + hexarelin 80 μg/kg s.c."}, "[6]": {"conditions": "compound alone, 160 μg/kg body weight s.c."}}, "data": [{"compound": "COc1ccc(Cn2c(CCc3ccccc3)nnc2[C@@H](Cc2c[nH]c3ccccc23)NC(=O)C2CCNCC2)cc1", "note": "[compound 44, (R)—N-(1-(4-(4-methoxybenzyl)-5-phenethyl-4H-1,2,4-triazol-3-yl)-2-(1H-indol-3-yl)ethyl)piperidine-4-carboxamide]", "values": [{"measurement": "IC50", "setting": "human GHS-R 1a", "result": 0.0006, "unit": "µM"}, {"measurement": "GH concentration", "setting": "[1]; compound 160 μg/kg s.c. at -10 min + hexarelin 80 μg/kg s.c. at 0 min", "result": "100.52 ± 12.112", "unit": "ng/mL"}, {"measurement": "GH concentration", "setting": "[1]; compound alone 160 μg/kg body weight s.c. at -10 min, solvent at 0 min", "result": "87.520 ± 15.066", "unit": "ng/mL"}, {"measurement": "Cumulative food intake (after 2 hours)", "setting": "[2]; [5]", "result": "1.2667 ± 0.1319", "unit": "g food/100 g body weight"}, {"measurement": "Cumulative food intake (after 6 hours)", "setting": "[2]; [5]", "result": "1.4033 ± 0.1177", "unit": "g food/100 g body weight"}, {"measurement": "Cumulative food intake (after 2 hours)", "setting": "[2]; [6]", "result": "0.43 ± 0.0721", "unit": "g food/100 g body weight"}, {"measurement": "Cumulative food intake (after 6 hours)", "setting": "[2]; [6]", "result": "0.7075 ± 0.1471", "unit": "g food/100 g body weight"}, {"measurement": "Body weight change, Day 3", "setting": "[3]; Day 3, mean of 6 animals", "result": "−5.32", "unit": "gram"}, {"measurement": "Body weight change, Day 6", "setting": "[3]; Day 6, mean of 6 animals", "result": 2.98, "unit": "gram"}, {"measurement": "Body weight change, Day 10", "setting": "[3]; Day 10, mean of 6 animals", "result": 14.92, "unit": "gram"}, {"measurement": "Body weight change, Day 13", "setting": "[3]; Day 13, mean of 6 animals", "result": 19.08, "unit": "gram"}, {"measurement": "Body weight change, Day 15", "setting": "[3]; Day 15, mean of 6 animals", "result": 7.05, "unit": "gram"}, {"measurement": "Body weight change, Day 17", "setting": "[3]; Day 17, mean of 6 animals", "result": 1.47, "unit": "gram"}, {"measurement": "IC50", "setting": "[4]", "result": 1.61, "unit": "µM"}]}]}
